Patent US10335409B2 (priority 2012, dated 2019)

What was measured:
Type in all cases: cell-based, hepatitis C virus
[1] = system: genotype 1a (H77) wild type transient HCV replicon in Huh-7-derived cells; experiment: Transient-transfected HCV replicon EC50, genotype 1a wild type; conditions: Hepatitis C virus, 72 h, transient-transfected replicon genotype 1a wild type, read-out: EC50 1A WT
[2] = system: genotype 3a (S52) stable HCV replicon in Huh-7-derived cells; experiment: Stable subgenomic HCV replicon EC50, genotype 3a (Renilla luciferase); conditions: Hepatitis C virus, 72 h, read-out: EC50 3A RLUC
[3] = system: genotype 1b (Con1) wild type transient HCV replicon in Huh-7-derived cells; experiment: Transient-transfected HCV replicon EC50, genotype 1b wild type; conditions: Hepatitis C virus, 72 h, transient-transfected replicon genotype 1b wild type, read-out: EC50 1B WT
[4] = system: genotype 1a (H77) stable HCV replicon in Huh-7-derived cells; experiment: Stable subgenomic HCV replicon EC50, genotype 1a (Renilla luciferase); conditions: Hepatitis C virus, stable replicon genotype 1a, 72 h, read-out: EC50 1A RLUC
How it was run: (§1)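 Compounds, three-fold diluted, were applied to Huh-7-derived cells harbouring luciferase replicons (genotype 1a H77, 1b Con1, 2a JFH-1, 4a ED43, with strain-specific adaptive mutations). Seventy-two hours later, intracellular replication was gauged by Renilla luciferase activity and EC50 derived by regression.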

[5] = system: genotype 1a NS3/4a protease inhibitor resistant variant R155K transient HCV replicon in Huh-7-derived cells; experiment: Transient-transfected HCV replicon EC50, genotype 1a R155K; conditions: Hepatitis C virus, 72 h, read-out: EC50 1A R155K, transient-transfected replicon genotype 1a R155K resistant variant, 72 h
[6] = system: genotype 2a (JFH-1) stable HCV replicon in Huh-7-derived cells; experiment: Stable subgenomic HCV replicon EC50, genotype 2a (Renilla luciferase); conditions: Hepatitis C virus, stable replicon genotype 2a, 72 h, read-out: EC50 2A RLUC
How it was run: as §1

[7] = system: genotype 4a (ED43) stable HCV replicon in Huh-7-derived cells; experiment: Stable subgenomic HCV replicon EC50, genotype 4a (Renilla luciferase); conditions: Hepatitis C virus, 72 h, read-out: EC50 4A RLUC
How it was run: as §1

[8] = system: genotype 1b NS3/4a protease inhibitor resistant variant D168A transient HCV replicon in Huh-7-derived cells; experiment: Transient-transfected HCV replicon EC50, genotype 1b D168A; conditions: Hepatitis C virus, 72 h, read-out: EC50 1B D168A, transient-transfected replicon genotype 1b D168A resistant variant, 72 h
[9] = system: genotype 3a (S52) wild type transient HCV replicon in Huh-7-derived cells; experiment: Transient-transfected HCV replicon EC50, genotype 3a wild type; conditions: Hepatitis C virus; transient-transfected replicon genotype 3a wild type, 72 h; read-out: EC50 3A WT
[10] = system: genotype 1b (Con1) stable HCV replicon in Huh-7-derived cells; experiment: Stable subgenomic HCV replicon EC50, genotype 1b (Renilla luciferase); conditions: Hepatitis C virus, stable replicon genotype 1b, 72 h, read-out: EC50 1B RLUC
How it was run: as §1

Molecule `CC[C@@H]1[C@@H]2CN(C(=O)[C@H](C(C)(C)C)NC(=O)O[C@@H]3C[C@H]3CCCCCc3nc4ccc(OC)cc4nc3O2)[C@@H]1C(=O)N[C@]1(C(=O)NS(=O)(=O)C2(Cl)CC2)C[C@H]1C(F)F` [Example 75, (1aR,5S,8S,9S,10R,22aR)-5-tert-butyl-N-[(1R,2R)-1-{[(1-chlorocyclopropyl)sulfonyl]carbamoyl}-2-(difluoromethyl)cyclopropyl]-9-ethyl-14-methoxy-3,6-dioxo-1,1a,3,4,5,6,9,10,18,19,20,21,22,22a-tetradecahydro-8H-7,10-methanocyclopropa[18,19][1,10,3,6]dioxadiazacyclononadecino[11,12-b]quinoxaline-8-carboxamide] has an EC50 [1] of 14 nM, an EC50 [2] of 240 nM and an EC50 [3] of 3.5 nM. It also gave an EC50 [4] of 9.9 nM, an EC50 [5] of 45 nM and an EC50 [6] of 18 nM. The EC50 [7] was 10 nM, the EC50 [8] was 51 nM and the EC50 [9] was 56 nM. The EC50 [10] was 6.4 nM.
`COc1ccc2nc3c(nc2c1)O[C@H]1CN(C(=O)[C@H](C(C)(C)C)NC(=O)O[C@@]2(C)C[C@@H]2CCCCC3(F)F)[C@H](C(=O)N[C@]2(C(=O)NS(=O)(=O)C3(C)CC3)C[C@H]2C(F)F)[C@@H]1C` [Example 77, (1 aS,5S,8S,9S,10R,22aS)-5-tert-butyl-N-[(1R,2R)-2-(difluoromethyl)-1-{[(1-methylcyclopropyl)sulfonyl]carbamoyl}cyclopropyl]-18,18-difluoro-14-methoxy-1a,9-dimethyl-3,6-dioxo-1,1a,3,4,5,6,9,10,18,19,20,21,22,22a-tetradecahydro-8H-7,10-methanocyclopropa[18,19][1,10,3,6]dioxadiazacyclononadecino[11,12-b]quinoxaline-8-carboxamide] gave an EC50 [1] of 21 nM, an EC50 [2] of 741 nM and an EC50 [3] of 5 nM. For the same molecule, the EC50 [4] was 23 nM, the EC50 [5] was 34 nM and the EC50 [6] was 29 nM. For the same molecule, the EC50 [7] was 16 nM, the EC50 [8] was 80 nM and the EC50 [9] was 472 nM. For the same molecule, the EC50 [10] was 12 nM.
In the case of `COc1ccc2nc3c(nc2c1)O[C@H]1CN(C(=O)[C@H](C(C)(C)C)NC(=O)O[C@@H]2C[C@@H]4C[C@@H]4[C@H]2CCCCC3(F)F)[C@H](C(=O)N[C@]2(C(=O)NS(=O)(=O)C3(C)CC3)C[C@H]2C(F)F)[C@@H]1C` [Example 81, (1aS,2aR,6S,9S,10S,11R,23aR,23bS)-6-tert-butyl-N-[(1R,2R)-2-(difluoromethyl)-1-{[(1-methylcyclopropyl)sulfonyl]carbamoyl}cyclopropyl]-19,19-difluoro-15-methoxy-10-methyl-4,7-dioxo-1a,2,2a,4,5,6,7,10,11,19,20,21,22,23,23a,23b-hexadecahydro-1H,9H-8,11-methanocyclopropa[4′,5′]cyclopenta[1′,2′:18,19][1,10,3,6]dioxadiazacyclononadecino[11,12-b]quinoxaline-9-carboxamide], the EC50 [1] is reported as 3.7 nM, the EC50 [2] is reported as 12 nM and the EC50 [3] is reported as 2.4 nM. For the same molecule, the EC50 [4] was 4 nM, the EC50 [5] was 2.5 nM and the EC50 [6] was 3.6 nM. The EC50 [7] was 4.3 nM, the EC50 [8] was 2.7 nM and the EC50 [9] was 4.3 nM. It also gave an EC50 [10] of 3.6 nM.
`C[C@@H]1[C@@H]2CN(C(=O)[C@H](C(C)(C)C)NC(=O)O[C@@H]3C[C@@H]4C[C@@H]4[C@H]3CCCCC(F)(F)c3nc4ccccc4nc3O2)[C@@H]1C(=O)N[C@]1(C(=O)NS(=O)(=O)C2(C)CC2)C[C@H]1C(F)F` [Example 82, (1aS,2aR,6S,9S,10S,11R,23aR,23bS)-6-tert-butyl-N-[(1R,2R)-2-(difluoromethyl)-1-{[(1-methylcyclopropyl)sulfonyl]carbamoyl}cyclopropyl]-19,19-difluoro-10-methy-4,7-dioxo-1a,2,2a,4,5,6,7,10,11,19,20,21,22,23,23a,23b-hexadecahydro-1H,9H-8,11-methanocyclopropa[4′,5′]cyclopenta[1′,2′:18,19][1,10,3,6]dioxadiazacyclononadecino[11,12-b]quinoxaline-9-carboxamide] gave an EC50 [1] of 7.8 nM, an EC50 [2] of 25 nM and an EC50 [3] of 4.1 nM. The EC50 [4] was 8.5 nM, the EC50 [5] was 6.2 nM and the EC50 [6] was 4.7 nM. The EC50 [7] was 10 nM, the EC50 [8] was 5.7 nM and the EC50 [9] was 16 nM. It also gave an EC50 [10] of 9.3 nM.
Molecule `CC[C@@H]1[C@@H]2CN(C(=O)[C@H](C(C)(C)C)NC(=O)O[C@@H]3C[C@H]3CC/C=C/C(F)(F)c3nc4ccc(C#N)cc4nc3O2)[C@@H]1C(=O)N[C@]1(C(=O)NS(=O)(=O)C2(C)CC2)C[C@H]1C(F)F` [Example 84, (1aR,5S,8S,9S,10R,19E,22aR)-5-tert-butyl-14-cyano-N-[(1R,2R)-2-(difluoromethyl)-1-{[(1-methylcyclopropyl)sulfonyl]carbamoyl}cyclopropyl]-9-ethyl-18,18-difluoro-3,6-dioxo-1,1a,3,4,5,6,9,10,18,21,22,22a-dodecahydro-8H-7,10-methanocyclopropa[18,19][1,10,3,6]dioxadiazacyclononadecino[11,12-b]quinoxaline-8-carboxamide] has an EC50 [1] of 5.4 nM, an EC50 [2] of 27 nM and an EC50 [3] of 2.5 nM. The EC50 [4] was 5.9 nM, the EC50 [5] was 4 nM and the EC50 [6] was 7.2 nM. The EC50 [7] was 6.4 nM, the EC50 [8] was 5.2 nM and the EC50 [9] was 11 nM. For the same molecule, the EC50 [10] was 5.7 nM.
In the case of `CC[C@@H]1[C@@H]2CN(C(=O)[C@H](C(C)(C)C)NC(=O)O[C@@H]3C[C@H]3CCCCC(F)(F)c3nc4ccc(OC(F)F)cc4nc3O2)[C@@H]1C(=O)N[C@]1(C(=O)NS(=O)(=O)C2(C)CC2)C[C@H]1C(F)F` [Example 85, (1aR,5S,8S,9S,10R,22aR)-5-tert-butyl-14-(difluoromethoxy)-N-[(1R,2R)-2-(difluoromethyl)-1-{[(1-methylcyclopropyl)sulfonyl]carbamoyl}cyclopropyl]-9-ethyl-18,18-difluoro-3,6-dioxo-1,1a,3,4,5,6,9,10,18,19,20,21,22,22a-tetradecahydro-8H-7,10-methanocyclopropa[18,19][1,10,3,6]dioxadiazacyclononadecino[11,12-b]quinoxaline-8-carboxamide], the EC50 [1] is reported as 12 nM, the EC50 [2] is reported as 304 nM and the EC50 [3] is reported as 7 nM. For the same molecule, the EC50 [4] was 16 nM, the EC50 [5] was 22 nM and the EC50 [6] was 7.7 nM. The EC50 [7] was 9.2 nM, the EC50 [8] was 57 nM and the EC50 [9] was 101 nM. It also gave an EC50 [10] of 17 nM.
Work on `CC[C@@H]1[C@@H]2CN(C(=O)[C@H](C(C)(C)C)NC(=O)O[C@@H]3C[C@H]3CCCCC(F)(F)c3nc4ccc(C#N)cc4nc3O2)[C@@H]1C(=O)N[C@]1(C(=O)NS(=O)(=O)C2(C)CC2)C[C@H]1C(F)F` [Example 87, (1aR,5S,8S,9S,10R,22aR)-5-tert-butyl-14-cyano-N-[(1R,2R)-2-(difluoromethyl)-1-{[(1-methylcyclopropyl)sulfonyl]carbamoyl}cyclopropyl]-9-ethyl-18,18-difluoro-3,6-dioxo-1,1a,3,4,5,6,9,10,18,19,20,21,22,22a-tetradecahydro-8H-7,10-methanocyclopropa[18,19][1,10,3,6]dioxadiazacyclononadecino[11,12-b]quinoxaline-8-carboxamide] yielded an EC50 [1] of 2.9 nM, an EC50 [2] of 14 nM and an EC50 [3] of 1.3 nM. The EC50 [4] was 4.8 nM, the EC50 [5] was 2.8 nM and the EC50 [6] was 3.3 nM. The EC50 [7] was 3.8 nM, the EC50 [8] was 4 nM and the EC50 [9] was 7.7 nM. The EC50 [10] was 3.9 nM.
`C=C[C@@H]1C[C@]1(NC(=O)[C@@H]1[C@H](CC)[C@@H]2CN1C(=O)[C@H](C(C)(C)C)NC(=O)O[C@@H]1C[C@H]1CCCCCc1nc3ccc(OC)cc3nc1O2)C(=O)NS(=O)(=O)C1CC1` [Example 91, (1aR,5S,8S,9S,10R,22aR)-5-tert-butyl-N-{(1R,2S)-1-[(cyclopropylsulfonyl)carbamoyl]-2-ethenylcyclopropyl}-9-ethyl-14-methoxy-3,6-dioxo-1,1a,3,4,5,6,9,10,18,19,20,21,22,22a-tetradecahydro-8H-7,10-methanocyclopropa[18,19][1,10,3,6]dioxadiazacyclononadecino[11,12-b]quinoxaline-8-carboxamide] showed an EC50 [1] of 2.3 nM, an EC50 [2] of 149 nM and an EC50 [3] of 1.3 nM. The EC50 [4] was 2.4 nM, the EC50 [5] was 3.5 nM and the EC50 [6] was 4 nM. For the same molecule, the EC50 [7] was 2.4 nM, the EC50 [8] was 9.2 nM and the EC50 [9] was 25 nM. The EC50 [10] was 1.9 nM.
